Source: article PMC2791543 (Cancer cell, 2009)

Columns and labels:
[1] = system: de novo pancreatic ductal adenocarcinoma; test: In vivo peptide homing in PDAC mice; details: FAM-labeled peptide, approximately 200 µg, 2 hrs circulation
αvβ3 integrin = αvβ3 integrin (Homo sapiens, UniProt P05106+P06756); test: ELISA affinity measurement on purified αvβ3 integrin; type: binding; details: compared with iRGD
αvβ5 integrin = αvβ5 integrin (Homo sapiens, UniProt P06756+P18084); test: ELISA affinity measurement on purified αvβ5 integrin; type: binding; details: compared with iRGD
Sequence of αvβ5 integrin (P06756 31-889 limits assumed): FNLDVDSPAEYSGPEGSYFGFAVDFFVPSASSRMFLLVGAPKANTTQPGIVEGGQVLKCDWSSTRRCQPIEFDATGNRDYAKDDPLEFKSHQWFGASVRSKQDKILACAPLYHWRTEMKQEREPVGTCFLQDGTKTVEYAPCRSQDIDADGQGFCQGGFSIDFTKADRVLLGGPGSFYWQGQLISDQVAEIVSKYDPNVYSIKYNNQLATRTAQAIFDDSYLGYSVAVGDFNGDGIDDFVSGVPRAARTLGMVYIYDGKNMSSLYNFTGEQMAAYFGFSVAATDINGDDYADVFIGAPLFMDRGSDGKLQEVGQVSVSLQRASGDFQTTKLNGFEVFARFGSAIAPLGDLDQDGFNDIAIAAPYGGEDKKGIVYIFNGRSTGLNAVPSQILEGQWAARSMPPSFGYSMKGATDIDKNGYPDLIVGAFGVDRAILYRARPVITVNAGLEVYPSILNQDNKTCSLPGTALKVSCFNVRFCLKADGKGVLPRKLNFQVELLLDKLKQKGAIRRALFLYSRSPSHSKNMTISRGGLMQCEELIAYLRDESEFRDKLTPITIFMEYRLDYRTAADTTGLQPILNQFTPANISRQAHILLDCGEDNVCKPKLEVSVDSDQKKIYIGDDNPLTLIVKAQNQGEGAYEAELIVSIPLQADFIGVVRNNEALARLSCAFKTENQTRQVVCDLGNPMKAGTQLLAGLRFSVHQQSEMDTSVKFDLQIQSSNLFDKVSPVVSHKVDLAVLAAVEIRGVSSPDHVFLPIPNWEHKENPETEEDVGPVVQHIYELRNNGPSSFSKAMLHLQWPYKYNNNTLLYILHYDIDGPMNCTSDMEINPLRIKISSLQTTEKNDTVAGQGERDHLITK
Sequence of αvβ5 integrin (P06756 891-1048 limits assumed): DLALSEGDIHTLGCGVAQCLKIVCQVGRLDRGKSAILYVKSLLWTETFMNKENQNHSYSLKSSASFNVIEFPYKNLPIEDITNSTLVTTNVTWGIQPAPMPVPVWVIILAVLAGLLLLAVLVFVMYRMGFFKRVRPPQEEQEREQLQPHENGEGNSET
Sequence of αvβ5 integrin (P18084 24-799): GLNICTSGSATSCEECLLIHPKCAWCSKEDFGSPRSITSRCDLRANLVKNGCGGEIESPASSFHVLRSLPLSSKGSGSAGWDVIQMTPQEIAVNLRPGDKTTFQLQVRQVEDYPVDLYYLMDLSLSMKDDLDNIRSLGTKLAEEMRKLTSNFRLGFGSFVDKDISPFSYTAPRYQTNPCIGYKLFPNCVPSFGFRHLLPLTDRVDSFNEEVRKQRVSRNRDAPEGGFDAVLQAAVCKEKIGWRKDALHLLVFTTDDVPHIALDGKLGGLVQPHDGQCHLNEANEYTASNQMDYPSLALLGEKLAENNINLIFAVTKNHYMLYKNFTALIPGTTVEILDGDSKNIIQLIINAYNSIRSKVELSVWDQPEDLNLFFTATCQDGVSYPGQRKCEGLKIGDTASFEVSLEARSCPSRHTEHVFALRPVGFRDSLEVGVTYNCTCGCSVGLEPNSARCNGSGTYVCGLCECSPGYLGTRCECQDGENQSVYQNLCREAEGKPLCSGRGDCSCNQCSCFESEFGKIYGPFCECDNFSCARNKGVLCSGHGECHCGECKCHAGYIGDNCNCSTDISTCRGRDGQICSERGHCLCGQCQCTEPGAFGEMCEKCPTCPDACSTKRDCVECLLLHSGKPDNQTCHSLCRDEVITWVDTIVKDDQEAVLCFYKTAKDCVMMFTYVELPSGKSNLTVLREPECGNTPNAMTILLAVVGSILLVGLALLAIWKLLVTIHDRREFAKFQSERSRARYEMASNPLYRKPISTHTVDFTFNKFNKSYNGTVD

PPC1 cells = test: Inhibition of CRGDK phage binding to PPC1 cells; type: cell-based, human
Neuropilin-1 = target: T1, Neuropilin-1 (Rattus norvegicus, UniProt Q9QWJ9); test: competition ELISA
T1 chain: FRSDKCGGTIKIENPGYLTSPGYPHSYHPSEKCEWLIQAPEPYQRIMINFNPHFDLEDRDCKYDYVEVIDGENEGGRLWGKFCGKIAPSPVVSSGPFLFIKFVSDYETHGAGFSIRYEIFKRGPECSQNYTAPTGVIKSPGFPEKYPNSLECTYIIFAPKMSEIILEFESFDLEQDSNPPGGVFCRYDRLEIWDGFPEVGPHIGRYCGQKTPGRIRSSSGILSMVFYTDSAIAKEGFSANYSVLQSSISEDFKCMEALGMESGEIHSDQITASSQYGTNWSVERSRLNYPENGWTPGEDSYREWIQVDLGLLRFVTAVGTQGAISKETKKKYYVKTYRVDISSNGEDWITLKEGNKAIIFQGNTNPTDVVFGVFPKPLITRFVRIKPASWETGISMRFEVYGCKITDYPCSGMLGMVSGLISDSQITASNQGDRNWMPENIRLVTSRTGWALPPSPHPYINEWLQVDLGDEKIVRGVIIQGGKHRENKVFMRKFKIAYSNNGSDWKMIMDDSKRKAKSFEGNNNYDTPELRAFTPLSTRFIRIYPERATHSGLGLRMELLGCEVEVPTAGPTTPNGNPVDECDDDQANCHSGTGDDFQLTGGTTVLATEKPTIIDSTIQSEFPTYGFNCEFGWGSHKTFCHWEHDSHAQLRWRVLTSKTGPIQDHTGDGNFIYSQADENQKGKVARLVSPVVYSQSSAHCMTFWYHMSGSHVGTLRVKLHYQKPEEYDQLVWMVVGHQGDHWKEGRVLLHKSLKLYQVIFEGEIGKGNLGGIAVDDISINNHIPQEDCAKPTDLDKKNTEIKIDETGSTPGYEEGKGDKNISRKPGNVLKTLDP

Sequence of αvβ3 integrin (P06756 31-889 limits assumed): as the sequence (P06756 31-889 limits assumed) above
Sequence of αvβ3 integrin (P06756 891-1048 limits assumed): as the sequence (P06756 891-1048 limits assumed) above
Sequence of αvβ3 integrin (P05106 27-788): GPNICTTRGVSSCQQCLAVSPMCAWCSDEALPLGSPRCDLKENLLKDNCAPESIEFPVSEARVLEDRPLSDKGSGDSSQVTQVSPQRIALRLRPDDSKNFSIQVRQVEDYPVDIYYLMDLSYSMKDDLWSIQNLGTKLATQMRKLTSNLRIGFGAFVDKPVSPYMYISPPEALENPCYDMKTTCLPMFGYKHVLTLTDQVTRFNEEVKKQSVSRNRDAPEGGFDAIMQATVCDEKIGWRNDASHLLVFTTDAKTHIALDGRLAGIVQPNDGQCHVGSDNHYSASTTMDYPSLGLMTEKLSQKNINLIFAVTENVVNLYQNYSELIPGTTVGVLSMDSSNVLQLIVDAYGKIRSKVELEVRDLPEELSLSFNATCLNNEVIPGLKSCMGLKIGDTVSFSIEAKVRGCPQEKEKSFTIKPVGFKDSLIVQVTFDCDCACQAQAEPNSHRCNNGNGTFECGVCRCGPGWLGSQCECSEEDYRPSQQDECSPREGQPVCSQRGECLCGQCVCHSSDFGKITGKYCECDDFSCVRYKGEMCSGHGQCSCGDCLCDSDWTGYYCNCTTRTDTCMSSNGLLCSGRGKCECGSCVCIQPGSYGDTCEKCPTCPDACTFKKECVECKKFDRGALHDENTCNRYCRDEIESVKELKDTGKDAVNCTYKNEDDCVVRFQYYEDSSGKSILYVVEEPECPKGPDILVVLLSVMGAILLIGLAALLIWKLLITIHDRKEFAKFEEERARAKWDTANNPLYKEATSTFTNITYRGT

Molecule: CRGEKGPDC [iRGE]
- tumor fluorescence after i.v. injection [1]: minimal tumor fluorescence

Molecule: CRGDC
- affinity for αvβ3, by ability to block iRGD binding (αvβ3 integrin): in the same range
- affinity for αvβ5, by ability to block iRGD binding (αvβ5 integrin): in the same range

Molecule: RPARPAR
- inhibition of CRGDK phage binding to PPC1 cells by peptide (PPC1 cells): inhibited

Molecule: CRGDK
- Kd (Neuropilin-1): 1400 nM
